As a reminder, the Ki is a dissociation constant, usually derived from enzyme kinetics or from competition with a known ligand.

The target of this experiment is T1, Bcl-2 protein (Homo sapiens, UniProt P10415, DELINS35-91DVEENRTEAPEGTESE, form not given).
T1 construct: fused on or other part: Bcl-xL (Q07817) residues 29-44 stand in place of Bcl-2's own unstructured loop 35-91; The C-terminal membrane anchor (208-239) is absent
Briefly: Bcl-2 fluorescence polarization assay (FPA) binding. Particulars: 10 nM Bcl-2 protein, 1 nM fluorescein-labeled BAX peptide, room temperature, read-out: Bcl-2 FPA 11pt Ki. The procedure:
Assays for the inhibition of Bcl-2 were performed in 96-well microtiter plates. Compounds of the instant invention were diluted in DMSO to concentrations between […] and 10 pM and introduced into each well of the plate. A mixture totaling 125 µL per well of assay buffer (20 mM phosphate buffer (pH 7.4), 1 mM EDTA, 0.05% PF-68), 10 nM of Bcl-2 protein (prepared according to the procedure described in PNAS 2001, 98, 3012-3017), 1 nM fluorescein-labeled BAX peptide (prepared in-house), and the DMSO solution of the compound of the instant invention was shaken for 2 minutes and placed in a LJL Analyst (LJL Bio Systems, CA. Polarization was measured at room temperature using a continuous Fluorescein lamp (excitation 485 nm, emission 530 nm). Ki values were calculated using Microsoft Excel.

T1 sequence (P10415 with tags, fused parts or gaps with the stated changes): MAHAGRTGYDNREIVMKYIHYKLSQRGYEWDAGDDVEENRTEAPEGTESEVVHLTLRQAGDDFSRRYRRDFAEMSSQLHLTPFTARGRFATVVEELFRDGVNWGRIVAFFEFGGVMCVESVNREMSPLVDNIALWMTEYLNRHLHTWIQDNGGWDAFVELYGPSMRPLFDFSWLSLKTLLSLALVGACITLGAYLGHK

Consider `CC1(C)[C@H]2CC=C(c3ccccc3CN3CCN(c4ccc(C(=O)NS(=O)(=O)c5ccc(NCC6CCOCC6)c([N+](=O)[O-])c5)cc4)CC3)[C@@H]1C2` [Example 27, 4-(4-{2-[(1R,5S)-6,6-dimethylbicyclo[3.1.1]hept-2-en-2-yl]benzyl}piperazin-1-yl)-N-({3-nitro-4-[(tetrahydro-2H-pyran-4-ylmethyl)amino]phenyl}sulfonyl)benzamide], for which the Ki amounted to 27.1 nM. To `O=C(NS(=O)(=O)c1ccc(NCC2CCCCC2)c([N+](=O)[O-])c1)c1ccc(N2C[C@@H]3C[C@H]2CN3CC23CC4CC(CC(C4)C2)C3)cc1` [Example 11, 4-{(1S,4S)-5-[adamantan-1-ylmethyl]-2,5-diazabicyclo[2.2.1]hept-2-yl}-N-({4-[(cyclohexylmethyl)amino]-3-nitrophenyl}sulfonyl)benzamide] belongs 1300 nM; to `C[C@@H]1[C@@H](N2CCN(c3ccc(C(=O)NS(=O)(=O)c4ccc(NCC5CCCCC5)c([N+](=O)[O-])c4)cc3)CC2)C[C@H]2C[C@@H]1C2(C)C` [Example 53, N-({4-[(cyclohexylmethyl)amino]-3-nitrophenyl}sulfonyl)-4-{4-[(1S,2S,3S,5R)-2,6,6-trimethylbicyclo[3.1.1]hept-3-yl]piperazin-1-yl}benzamide], 845 nM; to `O=C(NS(=O)(=O)c1ccc(NCC2CCCCC2)c([N+](=O)[O-])c1)c1ccc(N2CCN(CC34CC5CC(CC(C5)C3)C4)CC2)cc1` [Example 47, 4-{4-[adamantan-1-ylmethyl]piperazin-1-yl}-N-({4-[(cyclohexylmethyl)amino]-3-nitrophenyl}sulfonyl)benzamide], 66.9 nM. For `COc1cccc(OC)c1C(=O)c1sccc1-c1ccccc1C=C1CCN(c2ccc(C(=O)NS(=O)(=O)c3ccc(NCC4CCOCC4)c([N+](=O)[O-])c3)cc2)CC1` [Example 68, 4-(4-{2-[2-(2,6-dimethoxybenzoyl)-3-thienyl]benzylidene}piperidin-1-yl)-N-({3-nitro-4-[(tetrahydro-2H-pyran-4-ylmethyl)amino]phenyl}sulfonyl)benzamide], the Ki is 92.6 nM.

As for `CC12CC3CC(C)(C1)CC(CN1CCN(c4ccc(C(=O)NS(=O)(=O)c5ccc(NCC6CCCCC6)c([N+](=O)[O-])c5)cc4)CC1)(C3)C2` [Example 13, N-({4-[(cyclohexylmethyl)amino]-3-nitrophenyl}sulfonyl)-4-(4-{[3,5-dimethyladamantan-1-yl]methyl}piperazin-1-yl)benzamide], the Ki worked out at 608 nM.

Regarding `O=C(NS(=O)(=O)c1ccc(NCC2CCOCC2)c([N+](=O)[O-])c1)c1ccc(N2CCC(=Cc3ccccc3-c3ccc(-c4nc(-c5ccccc5)cs4)s3)CC2)cc1` [Example 75, N-({3-nitro-4-[(tetrahydro-2H-pyran-4-ylmethyl)amino]phenyl}sulfonyl)-4-(4-{2-[5-(4-phenyl-1,3-thiazol-2-yl)-2-thienyl]benzylidene}piperidin-1-yl)benzamide], the Ki turned out to be 251 nM.

For `C[C@@H]1[C@@H](N(C(=O)CCc2ccccc2)C2CCN(c3ccc(C(=O)NS(=O)(=O)c4ccc(N[C@H](CCN5CCOCC5)CSc5ccccc5)c(S(=O)(=O)C(F)(F)F)c4)cc3)CC2)C[C@H]2C[C@@H]1C2(C)C` [Example 9, N-[(4-{[(2R)-4-(morpholin-4-yl)-1-(phenylthio)butan-2-yl]amino}-3-[(trifluoromethyl)sulfonyl]phenyl)sulfonyl]-4-(4-{(3-phenylpropanoyl)[(1S,2S,3S,5R)-2,6,6-trimethylbicyclo[3.1.1]hept-3-yl]amino}piperidin-1-yl)benzamide], the inhibition constant (Ki) is less than 20 nM.

`C[C@@H]1[C@@H](N(Cc2ccc(-c3ccc(C(=O)NS(=O)(=O)c4ccc(NCC5CCCCC5)c([N+](=O)[O-])c4)cc3)cc2)C(=O)CCc2ccccc2)C[C@H]2C[C@@H]1C2(C)C` [Example 60, N-({4-[(cyclohexylmethyl)amino]-3-nitrophenyl}sulfonyl)-4′-({(3-phenylpropanoyl)[(1S,2S,3S,5R)-2,6,6-trimethylbicyclo[3.1.1]hept-3-yl]amino}methyl)biphenyl-4-carboxamide]: the inhibition constant (Ki) was 504 nM. To `O=C(NS(=O)(=O)c1ccc(NCC2CCCCC2)c([N+](=O)[O-])c1)c1ccc(N2CCN(CCC34CC5CC(CC(C5)C3)C4)CC2)cc1` [Example 58, 4-(4-{2-[adamantan-1-yl]ethyl}piperazin-1-yl)-N-({4-[(cyclohexylmethyl)amino]-3-nitrophenyl}sulfonyl)benzamide] belongs more than 18700 nM; to `O=C(NS(=O)(=O)c1ccc(N[C@H](CCN2CCOCC2)CSc2ccccc2)c([N+](=O)[O-])c1)c1ccc(N2CCN(CC34CC5CC(CC(C5)C3)C4)CC2)cc1` [Example 10, 4-{4-[adamantan-1-ylmethyl]piperazin-1-yl}-N-[(4-{[(2R)-4-(morpholin-4-yl)-1-(phenylthio)butan-2-yl]amino}-3-nitrophenyl)sulfonyl]benzamide], less than 20 nM; to `CN1[C@@H]2CC[C@H]1CC(Nc1ccccc1CN1CCN(c3ccc(C(=O)NS(=O)(=O)c4ccc(NCC5CCOCC5)c([N+](=O)[O-])c4)cc3)CC1)C2` (stereo partly drawn) [Example 31, 4-[4-(2-{[(1R,5S)-8-methyl-8-azabicyclo[3.2.1]oct-3-yl]amino}benzyl)piperazin-1-yl]-N-({3-nitro-4-[(tetrahydro-2H-pyran-4-ylmethyl)amino]phenyl}sulfonyl)benzamide], 31.9 nM. Next, `O=C(NS(=O)(=O)c1ccc(NCC2CCOCC2)c([N+](=O)[O-])c1)c1ccc(N2CCN(Cc3ccccc3-c3ccc(-c4nc(-c5ccccc5)cs4)s3)CC2)cc1` [Example 62, N-({3-nitro-4-[(tetrahydro-2H-pyran-4-ylmethyl)amino]phenyl}sulfonyl)-4-(4-{2-[5-(4-phenyl-1,3-thiazol-2-yl)-2-thienyl]benzyl}piperazin-1-yl)benzamide]: 281 nM; `CC1(C)C2C=C(c3ccccc3CN3CCN(c4ccc(C(=O)NS(=O)(=O)c5ccc(NCC6CCOCC6)c([N+](=O)[O-])c5)cc4)CC3)C1(C(=O)Nc1ccccc1)CC2` (stereo not drawn) [Example 35, 7,7-dimethyl-2-{2-[(4-{4-[({3-nitro-4-[(tetrahydro-2H-pyran-4-ylmethyl)amino]phenyl}sulfonyl)carbamoyl]phenyl}piperazin-1-yl)methyl]phenyl}-N-phenylbicyclo[2.2.1]hept-2-ene-1-carboxamide]: 21.7 nM. Next, `COc1ccc(-c2ccc3cc(C(=O)NS(=O)(=O)c4ccc(NCC5CCCCC5)c([N+](=O)[O-])c4)ccc3c2)cc1C12CC3CC(CC(C3)C1)C2` [Example 80, 6-{3-[adamantan-1-yl]-4-methoxyphenyl}-N-({4-[(cyclohexylmethyl)amino]-3-nitrophenyl}sulfonyl)-2-naphthamide]: 1300 nM; `CC1(C)C2C=C(c3ccccc3CN3CCN(c4ccc(C(=O)NS(=O)(=O)c5ccc(NCC6CCOCC6)c([N+](=O)[O-])c5)cc4)CC3)C1(C(=O)O)CC2` (stereo not drawn) [Example 39, 7,7-dimethyl-2-{2-[(4-{4-[({3-nitro-4-[(tetrahydro-2H-pyran-4-ylmethyl)amino]phenyl}sulfonyl)carbamoyl]phenyl}piperazin-1-yl)methyl]phenyl}bicyclo[2.2.1]hept-2-ene-1-carboxylic Acid]: 2910 nM. Regarding `O=C(NS(=O)(=O)c1ccc(NCC2CCOCC2)c([N+](=O)[O-])c1)c1ccc(N2CCN(Cc3ccccc3C3=CC4CC3C3CCCC43)CC2)cc1` (stereo not drawn) [Example 23, 4-(4-{2-[2,3,3a,4,7,7a-hexahydro-1H-4,7-methanoinden-5-yl]benzyl}piperazin-1-yl)-N-({3-nitro-4-[(tetrahydro-2H-pyran-4-ylmethyl)amino]phenyl}sulfonyl)benzamide], the Ki was less than 20 nM. For the molecule `CC1(C)C2C=C(c3ccccc3CN3CCN(c4ccc(C(=O)NS(=O)(=O)c5ccc(NCC6CCOCC6)c([N+](=O)[O-])c5)cc4)CC3)C1(C(=O)NC1CC1)CC2` (stereo not drawn) [Example 38, N-cyclopropyl-7,7-dimethyl-2-{2-[(4-{4-[({3-nitro-4-[(tetrahydro-2H-pyran-4-ylmethyl)amino]phenyl}sulfonyl)carbamoyl]phenyl}piperazin-1-yl)methyl]phenyl}bicyclo[2.2.1]hept-2-ene-1-carboxamide], the Ki was determined as 149 nM. Next, `O=C(NS(=O)(=O)c1ccc(NCC2CCOCC2)c([N+](=O)[O-])c1)c1ccc(N2CCN(Cc3ccccc3C(=C(c3ccccc3)c3ccccc3)c3ccccc3)CC2)cc1` [Example 65, N-({3-nitro-4-[(tetrahydro-2H-pyran-4-ylmethyl)amino]phenyl}sulfonyl)-4-{4-[2-(triphenylvinyl)benzyl]piperazin-1-yl}benzamide]: 928 nM; `CC12CC(CN(c3ccc(S(=O)(=O)NC(=O)c4ccc(N5CCN(Cc6ccccc6-c6ccc(Cl)cc6)CC5)cc4)cc3)C1=O)C2` [Example 14, 4-{4-[(4′-chlorobiphenyl-2-yl)methyl]piperazin-1-yl}-N-{[4-(1-methyl-2-oxo-3-azabicyclo[3.1.1]hept-3-yl)phenyl]sulfonyl}benzamide]: 47.4 nM. Next, `C[C@@H]1[C@@H](N(CCCc2ccccc2)c2ccc(-c3ccc(C(=O)NS(=O)(=O)c4ccc(NCC5CCCCC5)c([N+](=O)[O-])c4)cc3)cc2)C[C@H]2C[C@@H]1C2(C)C` [Example 7, N-({4-[(cyclohexylmethyl)amino]-3-nitrophenyl}sulfonyl)-4′-{(3-phenylpropyl)[(1S,2S,3S,5R)-2,6,6-trimethylbicyclo[3.1.1]hept-3-yl]amino}biphenyl-4-carboxamide]: 1260 nM.

For the origin of these results see US8188077B2, “Apoptosis-inducing agents for the treatment of cancer and immune and autoimmune diseases” (Abbott Laboratories, priority 2010, dated 2012).
